Values belong to the compound of their own block, whether it stands above or below them.
Experiments:
Type in all cases: cell-based
T315I-Bcr-Abl (Ba/F3) = test: Ba/F3 cell proliferation inhibition; conditions: BaF3; 72 hours, Cell Counting Kit-8
Method: (§1) […] lymphocyte cells, Parental (Ba/F3) and T315I-Bcr-Abl (Ba/F3) were seeded in 96-well plates at the density of 1×10^4/90 μL/well. A culture solution containing 9 concentrations (0.015 to 100 μM) of each example compound serially diluted in 3 folds or DMSO (control) were added to the plate ([…]) to a final concentration of 0 to 10 μM. The plate was incubated in a 37° C. CO2 incubator for 72 hours.
(§2) After incubation for 72 hours, the plate treated with the compound was treated with Cell Counting Kit-8 (Dojindo Molecular Technologies, Inc) solution at the concentration of 10 μL/well, and then mixed well. Then, the plate was incubated in a CO2 incubator at 37° C. for 2 hours, and absorbance at 450 nm was measured with a microplate reader. Data were expressed as percentage compared to vehicle treated cells and GI50 values were calculated using GraphPad Prism 5.0 (GraphPad software Inc., San Diego) GraphPad Prism 5.0.

Parental (Ba/F3) = test: Ba/F3 cell proliferation inhibition; conditions: BaF3; 72 hours, Cell Counting Kit-8
Method: as §1, §2

KOPM28 cells = test: human CML cell proliferation inhibition; conditions: 72 hours, Cell Counting Kit-8
Method: (§3) In order to evaluate the therapeutic effect of the compound according to the present invention on chronic myelogenous leukemia (CML), the following experiment was performed, and the results are shown in Table 6 below. Inhibitory activity to Bcr-Abl kinase was evaluated through the experiment using TCCS and KOPM28 cells, and inhibitory activity to T315I-Bcr-Abl kinase was evaluated through the experiment using T315I-TCCS and T315I-KOPM28 cells.
(§4) Human chronic myelogenous leukemia (CML) cells used in the experiment were TCCS, T315I-TCCS, KOPM28 and T315I-KOPM28, and the four types of cells were provided by University of Yamanashi.
(§5) Four types of human CML cells were each seeded in 96-well plates at the density of 1×10^4/90 μL/well. A culture solution containing 9 concentrations (0.000256 to 100 μM) of each example compound serially diluted in 5 folds or DMSO (control) were added to the plate (10 μL/well) to a final concentration of 0 to 10 μM. The plate was incubated in a 37° C. CO2 incubator for 72 hours.
as §2, with “8.0” for “5.0”, “Diego).” for “Diego) GraphPad Prism 5.0.”

T315I-TCCS cells = test: human CML cell proliferation inhibition; conditions: 72 hours, Cell Counting Kit-8
Method: as §3, §4, §5
as §2, with “8.0” for “5.0”, “Diego).” for “Diego) GraphPad Prism 5.0.”

T315I-KOPM28 cells = test: human CML cell proliferation inhibition; conditions: 72 hours, Cell Counting Kit-8
Method: as §3, §4, §5
as §2, with “8.0” for “5.0”, “Diego).” for “Diego) GraphPad Prism 5.0.”

TCCS cells = test: human CML cell proliferation inhibition; conditions: 72 hours, Cell Counting Kit-8
Method: as §3, §4, §5
as §2, with “8.0” for “5.0”, “Diego).” for “Diego) GraphPad Prism 5.0.”

SMILES: Cc1cc(Cl)c(C(=O)Nc2cc(Oc3ccncc3)cc(C(F)(F)F)c2)cc1C#Cc1cnc2c(Nc3cnn(C)c3)cccn12 [Example 15, 2-chloro-4-methyl-5-((8-((1-methyl-1H-pyrazol-4-yl)amino)imidazo[1,2-a]pyridin-3-yl)ethynyl)-N-(3-(pyridin-4-yloxy)-5-(trifluoromethyl)phenyl)benzamide]
GI50 (T315I-Bcr-Abl (Ba/F3)): < 50 nM | GI50 (Parental (Ba/F3)): > 5000 nM | GI50 (KOPM28 cells): < 10 nM | GI50 (T315I-TCCS cells): < 10 nM | GI50 (T315I-KOPM28 cells): < 10 nM | GI50 (TCCS cells): < 10 nM

SMILES: Cc1cc(F)c(C(=O)Nc2ccc(CN3CCN(C)C(=O)C3)c(C(F)(F)F)c2)cc1C#Cc1cnc2c(Nc3cn[nH]c3)cccn12 [Example 112, 5-((8-((1H-pyrazol-4-yl)amino)imidazo[1,2-a]pyridin-3-yl)ethynyl)-2-fluoro-4-methyl-N-(4-((4-methyl-3-oxopiperazin-1-yl)methyl)-3-(trifluoromethyl)phenyl)benzamide]
GI50 (T315I-Bcr-Abl (Ba/F3)): 50 to 500 nM | GI50 (Parental (Ba/F3)): 500 to 5000 nM | GI50 (KOPM28 cells): < 10 nM | GI50 (T315I-TCCS cells): 100 nM | GI50 (T315I-KOPM28 cells): 100 nM | GI50 (TCCS cells): < 10 nM

SMILES: Cc1cc(F)c(C(=O)Nc2ccc(CN3CCN(S(C)(=O)=O)CC3)c(C(F)(F)F)c2)cc1C#Cc1cnc2c(Nc3cnn(C)c3)cccn12 [Example 60, 2-fluoro-4-methyl-5-((8-((1-methyl-1H-pyrazol-4-yl)amino)imidazo[1,2-a]pyridin-3-yl)ethynyl)-N-(4-((4-(methylsulfonyl)piperazin-1-yl)methyl)-3-(trifluoromethyl)phenyl)benzamide]
GI50 (T315I-Bcr-Abl (Ba/F3)): < 50 nM | GI50 (Parental (Ba/F3)): 500 to 5000 nM | GI50 (KOPM28 cells): 100 nM | GI50 (T315I-TCCS cells): 100 nM | GI50 (T315I-KOPM28 cells): > 100 nM | GI50 (TCCS cells): < 10 nM

SMILES: Cc1c(F)cc(C(=O)Nc2cc(Oc3ccncc3)cc(C(F)(F)F)c2)cc1C#Cc1cnc2c(Nc3cnn(C)c3)cccn12 [Example 8, 3-fluoro-4-methyl-5-((8-((1-methyl-1H-pyrazol-4-yl)amino)imidazo[1,2-a]pyridin-3-yl)ethynyl)-N-(3-(pyridin-4-yloxy)-5-(trifluoromethyl)phenyl)benzamide]
GI50 (T315I-Bcr-Abl (Ba/F3)): < 50 nM | GI50 (Parental (Ba/F3)): > 5000 nM | GI50 (KOPM28 cells): < 10 nM | GI50 (T315I-TCCS cells): 100 nM | GI50 (T315I-KOPM28 cells): 100 nM | GI50 (TCCS cells): < 10 nM

SMILES: Cc1cn(-c2cc(NC(=O)c3ccc(C)c(C#Cc4cnc5c(Nc6cnn(C)c6)cccn45)c3F)cc(C(C)(C)C#N)c2)cn1 [Example 3, N-(3-(2-cyanopropan-2-yl)-5-(4-methyl-1H-imidazol-1-yl)phenyl)-2-fluoro-4-methyl-3-((8-((1-methyl-1H-pyrazol-4-yl)amino)imidazo[1,2-a]pyridin-3-yl)ethynyl)benzamide]
GI50 (T315I-Bcr-Abl (Ba/F3)): < 50 nM | GI50 (Parental (Ba/F3)): > 5000 nM | GI50 (KOPM28 cells): < 10 nM | GI50 (T315I-TCCS cells): 100 nM | GI50 (T315I-KOPM28 cells): 100 nM | GI50 (TCCS cells): < 10 nM

SMILES: Cc1cc(F)c(C(=O)Nc2cc(-c3ccncc3)cc(C(F)(F)F)c2)cc1C#Cc1cnc2c(Nc3cnn(C)c3)cccn12 [Example 52, 2-fluoro-4-methyl-5-((8-((1-methyl-1H-pyrazol-4-yl)amino)imidazo[1,2-a]pyridin-3-yl)ethynyl)-N-(3-(pyridin-4-yl)-5-(trifluoromethyl)phenyl)benzamide]
GI50 (T315I-Bcr-Abl (Ba/F3)): 50 to 500 nM | GI50 (Parental (Ba/F3)): > 5000 nM | GI50 (KOPM28 cells): < 10 nM | GI50 (T315I-TCCS cells): 100 nM | GI50 (T315I-KOPM28 cells): 100 nM | GI50 (TCCS cells): < 10 nM

SMILES: Cc1cc(F)c(C(=O)Nc2ccc(CN3CCC(N(C)C)C3)c(C(C)(C)C#N)c2)cc1C#Cc1cnc2c(Nc3cn[nH]c3)cccn12 (stereo not drawn) [Example 91, 5-((8-((1H-pyrazol-4-yl)amino)imidazo[1,2-a]pyridin-3-yl)ethynyl)-N-(3-(2-cyanopropan-2-yl)-4-((3-(dimethylamino)pyrrolidin-1-yl)methyl)phenyl)-2-fluoro-4-methylbenzamide]
GI50 (T315I-Bcr-Abl (Ba/F3)): 50 to 500 nM | GI50 (Parental (Ba/F3)): 500 to 5000 nM | GI50 (KOPM28 cells): < 10 nM | GI50 (T315I-TCCS cells): > 100 nM | GI50 (T315I-KOPM28 cells): > 100 nM | GI50 (TCCS cells): < 10 nM

SMILES: Cc1cc(F)c(C(=O)Nc2cc(-c3cccnc3)cc(C(C)(C)C#N)c2)cc1C#Cc1cnc2c(Nc3cnn(C)c3)cccn12 [Example 18, N-(3-(2-cyanopropan-2-yl)-5-(pyridin-3-yl)phenyl)-2-fluoro-4-methyl-5-((8-((1-methyl-1H-pyrazol-4-yl)amino)imidazo[1,2-a]pyridin-3-yl)ethynyl)benzamide]
GI50 (T315I-Bcr-Abl (Ba/F3)): 50 to 500 nM | GI50 (Parental (Ba/F3)): > 5000 nM | GI50 (KOPM28 cells): < 10 nM | GI50 (T315I-TCCS cells): 100 nM | GI50 (T315I-KOPM28 cells): 100 nM | GI50 (TCCS cells): < 10 nM

SMILES: Cc1cc(F)c(C(=O)Nc2cc(N3CCN(C)CC3)cc(C(C)(C)C#N)c2)cc1C#Cc1cnc2c(Nc3cnn(C)c3)cccn12 [Example 20, N-(3-(2-cyanopropan-2-yl)-5-(4-methylpiperazin-1-yl)phenyl)-2-fluoro-4-methyl-5-((8-((1-methyl-1H-pyrazol-4-yl)amino)imidazo[1,2-a]pyridin-3-yl)ethynyl)benzamide]
GI50 (T315I-Bcr-Abl (Ba/F3)): 50 to 500 nM | GI50 (Parental (Ba/F3)): 500 to 5000 nM | GI50 (KOPM28 cells): < 10 nM | GI50 (T315I-TCCS cells): 100 nM | GI50 (T315I-KOPM28 cells): > 100 nM | GI50 (TCCS cells): < 10 nM

SMILES: Cc1cn(-c2cc(NC(=O)c3cc(C#Cc4cnc5c(Nc6cn[nH]c6)cccn45)c(C)cc3F)cc(C(F)(F)F)c2)cn1 [Example 95, 5-((8-((1H-pyrazol-4-yl)amino)imidazo[1,2-a]pyridin-3-yl)ethynyl)-2-fluoro-4-methyl-N-(3-(4-methyl-1H-imidazol-1-yl)-5-(trifluoromethyl)phenyl)benzamide]
GI50 (T315I-Bcr-Abl (Ba/F3)): < 50 nM | GI50 (Parental (Ba/F3)): > 5000 nM | GI50 (KOPM28 cells): < 10 nM | GI50 (T315I-TCCS cells): 100 nM | GI50 (T315I-KOPM28 cells): 100 nM | GI50 (TCCS cells): < 10 nM

More lines, main results first:

GI50 (T315I-Bcr-Abl (Ba/F3)): 50 to 500 nM
SMILES: Cc1cc(F)c(C(=O)Nc2cc(CN3CCOCC3)cc(C(F)(F)F)c2)cc1C#Cc1cnc2c(Nc3cnn(C)c3)cccn12 [Example 66, 2-fluoro-4-methyl-5-((8-((1-methyl-1H-pyrazol-4-yl)amino)imidazo[1,2-a]pyridin-3-yl)ethynyl)-N-(3-(morpholinomethyl)-5-(trifluoromethyl)phenyl)benzamide]
GI50 (Parental (Ba/F3)): > 5000 nM | GI50 (KOPM28 cells): < 10 nM | GI50 (T315I-TCCS cells): > 100 nM | GI50 (T315I-KOPM28 cells): > 100 nM | GI50 (TCCS cells): < 10 nM

GI50 (T315I-Bcr-Abl (Ba/F3)): 50 to 500 nM
SMILES: Cc1cc(F)c(C(=O)Nc2cc(CN3CCN(C(C)C)CC3)cc(C(C)(C)C#N)c2)cc1C#Cc1cnc2c(Nc3cnn(C)c3)cccn12 [Example 33, N-(3-(2-cyanopropan-2-yl)-5-((4-isopropylpiperazin-1-yl)methyl)phenyl)-2-fluoro-4-methyl-5-((8-((1-methyl-1H-pyrazol-4-yl)amino)imidazo[1,2-a]pyridin-3-yl)ethynyl)benzamide]
GI50 (Parental (Ba/F3)): 500 to 5000 nM | GI50 (KOPM28 cells): < 10 nM | GI50 (T315I-TCCS cells): 100 nM | GI50 (T315I-KOPM28 cells): > 100 nM | GI50 (TCCS cells): < 10 nM

GI50 (T315I-Bcr-Abl (Ba/F3)): 50 to 500 nM
SMILES: Cc1cc(F)c(C(=O)Nc2ccc(CN3CCN(CCO)CC3)c(C(C)(C)C#N)c2)cc1C#Cc1cnc2c(Nc3cnn(C)c3)cccn12 [Example 43, N-(3-(2-cyanopropan-2-yl)-4-((4-(2-hydroxyethyl)piperazin-1-yl)methyl)phenyl)-2-fluoro-4-methyl-5-((8-((1-methyl-1H-pyrazol-4-yl)amino)imidazo[1,2-a]pyridin-3-yl)ethynyl)benzamide]
GI50 (Parental (Ba/F3)): 500 to 5000 nM | GI50 (KOPM28 cells): < 10 nM | GI50 (T315I-TCCS cells): 100 nM | GI50 (T315I-KOPM28 cells): > 100 nM | GI50 (TCCS cells): < 10 nM

GI50 (T315I-Bcr-Abl (Ba/F3)): 50 to 500 nM
SMILES: Cc1cc(F)c(C(=O)Nc2ccc(CN3CCN(CCO)CC3)c(C(F)(F)F)c2)cc1C#Cc1cnc2c(Nc3cn[nH]c3)cccn12 [Example 111, 5-((8-((1H-pyrazol-4-yl)amino)imidazo[1,2-a]pyridin-3-yl)ethynyl)-2-fluoro-N-(4-((4-(2-hydroxyethyl)piperazin-1-yl)methyl)-3-(trifluoromethyl)phenyl)-4-methylbenzamide]
GI50 (Parental (Ba/F3)): 500 to 5000 nM | GI50 (KOPM28 cells): < 10 nM | GI50 (T315I-TCCS cells): < 10 nM | GI50 (T315I-KOPM28 cells): < 10 nM | GI50 (TCCS cells): < 10 nM

GI50 (T315I-Bcr-Abl (Ba/F3)): 50 to 500 nM
SMILES: Cc1cc(F)c(C(=O)Nc2cc(CN3CCN(CCO)CC3)cc(C(F)(F)F)c2)cc1C#Cc1cnc2c(Nc3cnn(C)c3)cccn12 [Example 69, 2-fluoro-N-(3-((4-(2-hydroxyethyl)piperazin-1-yl)methyl)-5-(trifluoromethyl)phenyl)-4-methyl-5-((8-((1-methyl-1H-pyrazol-4-yl)amino)imidazo[1,2-a]pyridin-3-yl)ethynyl)benzamide]
GI50 (Parental (Ba/F3)): > 5000 nM | GI50 (KOPM28 cells): < 10 nM | GI50 (T315I-TCCS cells): > 100 nM | GI50 (T315I-KOPM28 cells): > 100 nM | GI50 (TCCS cells): 100 nM
